Measured values reported in PMC7069976, “Improved secretion of glycoproteins using an N-glycan-restricted passport sequence tag recognized by cargo receptor” (Nature Communications, 2020).

System: HCT116 cells
Experiment: RUSH imaging of ER-to-Golgi transport
Type: cell-based
Conditions: for colocalized fraction with GM130 (Manders' M1), average: mScarlet-I fusion
Experimental: For live-cell imaging using RUSH system, li-Str_ST-SBP-mCherry (Plasmid #65269) was purchased from Addgene. We replaced mCherry with mScarlet-I-EPO or mScarlet-I-EPO-motif (SbfI/XbaI). HCT116 cells were plated on 35-mm glass-based dishes, which were coated with poly-L-lysine, and grown overnight. RUSH plasmids to express mScarlet-I-EPO and mScarlet-I-EPO-motif were individually transfected into the cells using Expifectamine^TM 293 reagent. After 24 h, the medium was changed into DMEM including 40 μM (+)-biotin for starting the translocation form ER. […] After blocking with Blocking One solution (Nacalai Tesque), the cells were incubated with polyclonal rabbit anti-GM130 (Proteintech, 11308-1-AP, dilution 1 :1000) and then with Alexa Fluor 488-conjugated anti-rabbit IgG antibody [Jackson ImmunoResearch (West Grove, PA), 711-545-152, dilution 1:1000] in 20 mM Tris-HCl (pH 7.6) containing 150 mM NaCl and 0.05% Tween-20. Cell images were recorded using a fluorescence microscope BZ-X700 and BZ-H3XF/Sectioning Module (Keyence Co., Osaka, Japan) and analyzed by Fiji[31]. For quantification of co-localization of EPO proteins and GM130, the images were thresholded by the Otsu method and analyzed by calculating Manders’ coefficient (M1) with Coloc2 plugin[32]. Because of abnormal distribution of the imaging data based on Shapiro–Wilk normality test, nonparametric statistics were used for the analysis. All statistical analysis was performed in the R statistical environment version 3.5.3[33].

EPO: recombinant Flag-tagged erythropoietin without motif (Fig. 5 prints EPO for mScarlet-I-EPO)
colocalized fraction with GM130 (Manders' M1) (0 min, Figure No. 1): 0.028 | colocalized fraction with GM130 (Manders' M1) (0 min, Figure No. 2): 0.024 | colocalized fraction with GM130 (Manders' M1) (0 min, Figure No. 3): 0.051 | colocalized fraction with GM130 (Manders' M1) (0 min, Figure No. 4): 0.098 | colocalized fraction with GM130 (Manders' M1) (0 min, Figure No. 5): 0.14 | colocalized fraction with GM130 (Manders' M1) (0 min, Figure No. 6): 0.098 | colocalized fraction with GM130 (Manders' M1) (0 min, Figure No. 7): 0.128 | colocalized fraction with GM130 (Manders' M1) (0 min, Figure No. 8): 0.018 | colocalized fraction with GM130 (Manders' M1) (0 min, Figure No. 9): 0.026 | colocalized fraction with GM130 (Manders' M1), average (0 min after biotin (40 μM), n = 9 cells): 0.06789 | colocalized fraction with GM130 (Manders' M1) (30 min, Figure No. 1): 0.115 | colocalized fraction with GM130 (Manders' M1) (30 min, Figure No. 2): 0.302 | colocalized fraction with GM130 (Manders' M1) (30 min, Figure No. 3): 0.628 | colocalized fraction with GM130 (Manders' M1) (30 min, Figure No. 4): 0.57 | colocalized fraction with GM130 (Manders' M1) (30 min, Figure No. 5): 0.472 | colocalized fraction with GM130 (Manders' M1) (30 min, Figure No. 6): 0.508 | colocalized fraction with GM130 (Manders' M1) (30 min, Figure No. 7): 0.39 | colocalized fraction with GM130 (Manders' M1) (30 min, Figure No. 8): 0.267 | colocalized fraction with GM130 (Manders' M1) (30 min, Figure No. 9): 0.53 | colocalized fraction with GM130 (Manders' M1) (30 min, Figure No. 10): 0.285 | colocalized fraction with GM130 (Manders' M1), average (30 min after biotin (40 μM), n = 10 (EPO) or 13 (EPO-motif) cells): 0.4067 | ER-to-Golgi trafficking (30 min after biotin addition): localized in the Golgi to varying extents depending on the C-terminal motif | localization in RUSH imaging (before addition of biotin (time 0)): typical ER localization
